Results from ChEMBL document CHEMBL5244217, “β-Carboline alkaloid monomers and dimers: Occurrence, structural diversity, and biological activities” (Eur J Med Chem, 2018).
Values after ≈ are worked out from the molar mass of the structure shown.

How the values were obtained:
[1] = system: Human immunodeficiency virus 1; assay: Antiviral activity against HIV1 IIIB infected in human C8166 cells assessed as reduction in virus-induced cytopathic effect measured after 3 days by Syncytia assays; assay type: functional, organism-based; settings: Human immunodeficiency virus 1, IIIB, C8166, 72 h
[2] = target: Alpha-glucosidase (Saccharomyces cerevisiae S288c, UniProt P53341+P38158+P07265); assay: Inhibition of Saccharomyces cerevisiae alpha-glucosidase activity using pNPG as substrate; assay type: protein assay
[3] = system: Mycolicibacterium fortuitum; assay: Antibacterial activity against Mycobacterium fortuitum ATCC 6841; assay type: functional
[4] = system: Mycolicibacterium smegmatis; assay: Antibacterial activity against Mycobacterium smegmatis ATCC 14468; assay type: functional
[5] = system: Mycolicibacterium smegmatis; assay: Antibacterial activity against Mycolicibacterium smegmatis MC2 2700; assay type: functional
[6] = system: Mycolicibacterium phlei; assay: Antibacterial activity against Mycolicibacterium phlei ATCC 11758; assay type: functional
[7] = system: Staphylococcus aureus; assay: Antibacterial activity against Staphylococcus aureus 1199B; assay type: functional
[8] = system: Staphylococcus aureus; assay: Antibacterial activity against Staphylococcus aureus XU212; assay type: functional
[9] = system: Staphylococcus aureus; assay: Antibacterial activity against Staphylococcus aureus EMRSA-15; assay type: functional
[10] = system: HL-60; assay: Cytotoxicity against human HL-60 cells; assay type: functional, cell-based
[11] = system: Micrococcus luteus; assay: Antibacterial activity against Sarcina lutea; assay type: functional
[12] = system: Bacillus subtilis; assay: Antibacterial activity against Bacillus subtilis; assay type: functional
[13] = system: Corynebacterium xerosis; assay: Antibacterial activity against Corynebacterium xerosis; assay type: functional
[14] = system: KB; assay: Cytotoxicity against human KB cells; assay type: functional; settings: read-out: ED50 (the source's name)
[15] = system: MDA-MB-231; assay: Cytotoxicity against human MDA-MB-231 cells; assay type: functional, cell-based
[16] = system: Candida albicans; assay: Antimicrobial activity against Candida albicans; assay type: functional
[17] = system: Cryptococcus neoformans; assay: Antimicrobial activity against Cryptococcus neoformans; assay type: functional
[18] = system: Staphylococcus aureus; assay: Antimicrobial activity against Staphylococcus aureus; assay type: functional
[19] = Selectivity index, ratio of IC50 for cytotoxicity against rat L6 cells to IC50 for Antimalarial activity against Plasmodium falciparum K1 strain; assay type: toxicity, cell-based; settings: read-out: Selectivity Index
[20] = system: Plasmodium falciparum; assay: Antimalarial activity against Plasmodium falciparum K1 strain; assay type: functional, organism-based
[21] = system: Trypanosoma brucei brucei; assay: Antitrypanosomal activity against Trypanosoma brucei brucei; assay type: functional, organism-based
[22] = system: Plasmodium falciparum; assay: Antimalarial activity against Plasmodium falciparum; assay type: functional, organism-based
[23] = system: Human immunodeficiency virus 1; assay: Antiviral activity against HIV1; assay type: functional, organism-based
[24] = system: dengue virus type 2; assay: Antiviral activity against DENV-2 strain New Guinea C infected in Vero cells assessed as reduction in virus yield measured after 48 hrs; assay type: functional, organism-based

With O=C(O)c1cc2c([nH]c3ccccc32)c(-c2ccc(CO)o2)n1 [FLAZINE] the IC50 [1] was 2370 nM.
With O=C(CO)CCC(=O)c1nc(C(=O)O)cc2c1[nH]c1ccccc12 the IC50 [2] was 63.3 µg/mL (≈ 194 µM).
N=C(N)NCCC[C@H]1NCCc2c1[nH]c1cc(Br)ccc21 showed an MIC [3] of 16 µg/mL (≈ 45.7 µM), an MIC [4] of 16 µg/mL (≈ 45.7 µM) and an MIC [5] of 2 µg/mL (≈ 5.71 µM). It also gave an MIC [6] of 8 µg/mL (≈ 22.8 µM), an MIC [7] of 16 µg/mL (≈ 45.7 µM) and an MIC [8] of 8 µg/mL (≈ 22.8 µM). It also gave an MIC [9] of 64 µg/mL (≈ 183 µM).
Compound NC(=O)c1cc2c([nH]c3ccccc32)c(-c2ccc(CO)o2)n1 has an EC50 [1] of 380 nM.
COc1ccc2c3c([nH]c2c1)[C@]12CC(C)(C)[C@@]4(C(=O)N1CC3)c1[nH]c3cc(OC)ccc3c1CCN24 gave an IC50 [10] of 5800 nM.
With O[C@H]1[C@H]2[C@@H]3c4[nH]c5ccccc5c4CCN3CN3CCCC/C=C\CC[C@@]45CN(CCCC/C=C\CC[C@@]1(O)[C@H]34)CC[C@@H]25 the MIC [11] was 2.8 µg/mL (≈ 4.79 µM), the MIC [12] was 2.8 µg/mL (≈ 4.79 µM) and the MIC [13] was 5.7 µg/mL (≈ 9.75 µM).
For CC(C)CC(N)c1nccc2c1[nH]c1cc(Br)ccc12 (centres undefined) [EUDISTALBIN A], the EC50 [14] was < 3.2 µg/mL and the IC50 [15] was 2100 nM.
CSc1c(C2=C(c3c[nH]c4ccc(O)cc34)C(=O)N3c4ccc(O)cc4C4C=CN=C2C43)n(C)c[n+]1C (centres undefined) showed an MIC [16] of 4 µg/mL, an MIC [17] of 4 µg/mL and an MIC [18] of 4 µg/mL.
With C[n+]1ccc2c(c1)[nH]c1ccc(Cl)cc12 [NOSTOCARBOLINE] the selectivity ratio [19] was 2500 and the IC50 [20] was 18 nM.
Oc1cccc2c3c([nH]c12)C(C1=C[C@@]2(O)CC/C=C\CCCCN4CC[C@@H]1[C@]1(C[C@@H]5/C=C\CCCCN5[C@H]12)C4)=NCC3 showed an MIC [11] of 4 µg/mL (≈ 7.06 µM).
O[C@]12C=C(C3c4[nH]c5ccccc5c4CCN3CCc3nccc4c3[nH]c3ccccc34)[C@@H]3CCN(CCCC/C=C\CC1)C[C@@]31C[C@@H]3/C=C\CCCCN3[C@H]12 (some centres undefined) gave an IC50 [21] of 0.27 µg/mL (≈ 0.361 µM) and an IC50 [22] of 0.58 µg/mL (≈ 0.776 µM).
CSc1c(C2=C(c3c[nH]c4ccc(O)cc34)C(=O)N3c4ccc(O)cc4C4C=C(C(=O)O)N=C2C43)n(C)c[n+]1C (centres undefined) showed an MIC [16] of 8 µg/mL, an MIC [17] of 8 µg/mL and an MIC [18] of 8 µg/mL.
With Oc1cccc2c1[nH]c1c(C3=C[C@@]4(O)CC/C=C\CCCCN5CC[C@@H]3[C@]3(C[C@@H]6/C=C\CCCCN6[C@H]34)C5)nccc12 the MIC [11] was 0.91 µg/mL (≈ 1.61 µM).
Oc1ccc2[nH]c3c(C4=C[C@@]5(O)CC/C=C\CCCCN6CC[C@@H]4[C@]4(C[C@@H]7/C=C\CCCCN7[C@H]45)C6)nccc3c2c1 [MANZAMINE Y] showed an MIC [11] of 0.25 µg/mL (≈ 0.443 µM).
O[C@]12C=C(c3nccc4c3[nH]c3ccccc34)[C@@H]3CCN(CCCC/C=C\CC1)C[C@@]31C[C@@H]3/C=C\CCCCN3[C@H]12 [MANZAMINE A] gave an IC50 [23] of 4200 nM.
Work on O=c1ccc2nccc3c4ccccc4n1c23 [CANTHIN-6-ONE] yielded an MIC [3] of 16 µg/mL (≈ 72.7 µM), an MIC [4] of 8 µg/mL (≈ 36.3 µM) and an MIC [5] of 8 µg/mL (≈ 36.3 µM). For the same compound, the MIC [6] was 8 µg/mL (≈ 36.3 µM), the MIC [7] was 8 µg/mL (≈ 36.3 µM) and the MIC [8] was 8 µg/mL (≈ 36.3 µM). For the same compound, the MIC [9] was 32 µg/mL (≈ 145 µM).
Compound Oc1ccc2[nH]c3c(C4=C[C@@]5(O)CC/C=C\CCCCN6CC[C@@H]4[C@@]4(C6)C[C@@]67CCC(CCCN6[C@H]45)O7)nccc3c2c1 has an IC50 [23] of 2300 nM.
In the case of COc1ccc2c3ccnc(C)c3n(C)c2c1, the EC50 [24] is reported as 3200 nM.
